In patent publication US7579356B2, “Thia-tetraazaacenaphthylene kinase inhibitors” (Janssen Pharmaceutica NV, priority 2005, dated 2009):
pIC50: −log10 of the molar value. Values joined by “and” are separate entries in the source; they are usually repeats but may differ in a detail not shown here. Identical values can stand only once.

Legend:
A375 malignant melanoma = experiment: Cell Proliferation Inhibition Assay, A375 (14C-thymidine); type: cell-based; conditions: Homo sapiens, A-375
From the text: Cell Proliferation Inhibition Assay
The ability of a test compound to inhibit unregulated cell proliferation may be determined by measuring incorporation of ^14C-labelled thymidine into newly synthesized DNA within cell lines derived from carcinomas originating from several tissues. Accordingly, the effect of a test compound on proliferation of cells with a variety of phenotypes may be determined.
Carcinoma cell lines used include the HeLa cervical adenocarcinoma from the American Type Culture Collection (ATCC Cat. #CCL2), A375 malignant melanoma (ATCC Cat. #CRL-1619), HCT-116 colon carcinoma (ATCC Cat. #CCL-247), SKBR3 breast carcinoma (ATCC Cat. #HTB-30) and BT474 breast carcinoma (ATCC Cat. #HTB-20).
The carcinoma cells were trypsinized and counted. The cells (3000-8000 count) were added to each well of a 96-well CytoStar tissue culture treated scintillating microplate (Amersham #RPNQ0160) in complete medium (100 μL) and the plate was then incubated in complete medium for 24 hrs at 37° C. in an inert atmosphere containing 5% CO2.
Test compound (1 μL) in 100% DMSO was added to the plate test-wells with DMSO only added to control-wells. The plate was incubated in complete medium for a second 24 hr period at 37° C. in an atmosphere containing 5% CO2.
An aliquot of a solution of Methyl ^14C-thymidine (56 mC/mmol) (NEN #NEC568 or AMersham #CFA532) and complete medium (20 uL to provide 0.2 μCl/well) was then added to each well and the plate was incubated for a third 24 hr period at 37° C. in an atmosphere containing 5% CO2.
The plate contents were then discarded, the plate washed twice with PBS (200 μL) and then PBS (200 μL) was added to each well. The plate was sealed and the degree of methyl ^14C-thymidine incorporation was quantified on a Packard Top Count.
Cell proliferation of the Hela cell line was measured using the ATP-Lite method as described in the ATP Lite Kit (Perkin-Elmer Kit Number 6106941) or the C^14 method as described above. Cell proliferation of the other cell lines was measured using the C^14 method.

HER-2 = biological target: T1, HER-2 (Homo sapiens, UniProt P04626); experiment: HER-2 Kinase Assay; type: biochemical; conditions: for inhibition at 1 µM: test concentration of 1 μM; for pIC50: value in parentheses
T1 construct: His6 with thrombin site (N); purchased Proqinase (Freiburg, Germany)
T1 sequence (P04626 679-1255): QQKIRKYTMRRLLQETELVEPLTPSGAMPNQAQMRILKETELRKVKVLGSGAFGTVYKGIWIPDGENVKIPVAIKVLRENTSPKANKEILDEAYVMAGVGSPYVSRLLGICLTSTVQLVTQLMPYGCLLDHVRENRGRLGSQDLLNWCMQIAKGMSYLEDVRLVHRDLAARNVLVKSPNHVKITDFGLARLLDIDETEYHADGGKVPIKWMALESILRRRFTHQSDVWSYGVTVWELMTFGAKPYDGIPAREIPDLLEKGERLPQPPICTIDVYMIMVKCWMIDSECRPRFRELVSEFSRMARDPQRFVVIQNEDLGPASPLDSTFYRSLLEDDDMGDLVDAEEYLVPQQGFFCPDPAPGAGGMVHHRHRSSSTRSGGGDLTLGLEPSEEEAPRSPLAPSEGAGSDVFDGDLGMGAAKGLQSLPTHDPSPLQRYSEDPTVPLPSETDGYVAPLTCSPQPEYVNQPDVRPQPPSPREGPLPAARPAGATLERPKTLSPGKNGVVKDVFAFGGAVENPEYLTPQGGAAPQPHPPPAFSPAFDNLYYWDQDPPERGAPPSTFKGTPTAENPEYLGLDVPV
Summary of the method: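 Read-out was scintillation counting of 33P incorporated into biotinylated polyGluTyr captured on streptavidin plates. Reactions ran 1 h at 30 °C with GST-fused HER-2 residues 679–1255, 1 μM ATP, Mn2+ and Mg2+ at pH 7.5; data given as percent inhibition at 1 μM, with IC50 where determined.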

Lyn kinase (human) = biological target: T2, Lyn kinase (human) (Homo sapiens, UniProt P07948); experiment: Lyn Kinase Assay; type: biochemical; conditions: for inhibition at 2 µM / % Inhibition (Lyn): test concentration of 2 μM; for % Inhibition (Lyn): 2 µM
T2 construct: purchased Upstate Biotechnology, Lake Placid, N.Y
T2 sequence (P07948 whole entry): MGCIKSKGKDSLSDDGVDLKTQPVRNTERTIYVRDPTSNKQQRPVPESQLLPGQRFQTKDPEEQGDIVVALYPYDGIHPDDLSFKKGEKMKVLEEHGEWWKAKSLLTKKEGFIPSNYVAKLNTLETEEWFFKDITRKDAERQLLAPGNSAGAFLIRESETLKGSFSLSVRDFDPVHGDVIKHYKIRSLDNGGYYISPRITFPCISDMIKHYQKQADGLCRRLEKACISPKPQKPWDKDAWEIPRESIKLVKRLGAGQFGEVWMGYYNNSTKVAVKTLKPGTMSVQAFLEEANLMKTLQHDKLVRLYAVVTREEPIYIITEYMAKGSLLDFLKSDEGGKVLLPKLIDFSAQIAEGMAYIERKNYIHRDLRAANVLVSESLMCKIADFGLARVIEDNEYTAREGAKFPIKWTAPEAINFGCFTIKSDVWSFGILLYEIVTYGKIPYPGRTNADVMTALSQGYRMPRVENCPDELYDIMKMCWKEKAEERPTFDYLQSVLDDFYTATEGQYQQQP
Summary of the method: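 Radiometric filter-binding assay with recombinant human Lyn, poly(Glu,Tyr) substrate (0.1 mg/mL final), 5 μM ATP plus γ-33P-ATP in MOPS pH 7.5/Mg acetate buffer; 40 min at 30 °C, stopped with phosphoric acid, counted by scintillation. Reported as percent inhibition at 2 μM, with IC50 (μM) where determined.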

SMILES | pIC50 (A375 malignant melanoma) | inhibition at 1 µM (HER-2) | pIC50 (HER-2) | inhibition at 2 µM (Lyn kinase (human)) | % Inhibition (Lyn) (Lyn kinase (human)) | pIC50 (Lyn kinase (human); value in parentheses)
O=C(Nc1ccc(NCCCN2CCOCC2)nc1)c1sc2ncnc3c2c1NC(=O)N3c1cccc(Br)c1 [Cpd 64, 5-(3-bromo-phenyl)-4-oxo-4,5-dihydro-3H-1-thia-3,5,6,8-tetraaza-acenaphthylene-2-carboxylic acid [6-(3-morpholin-4-yl-propylamino)-pyridin-3-yl]-amide] | – | 57% | 6.35 | 26% | – | –
O=C(Nc1ccc(CN2CCCCC2)cc1)c1sc2ncnc3c2c1NC(=O)N3c1ccc(Oc2ccccc2)cc1 [Cpd 96, 4-oxo-5-(4-phenoxy-phenyl)-4,5-dihydro-3H-1-thia-3,5,6,8-tetraaza-acenaphthylene-2-carboxylic acid (4-piperidin-1-ylmethyl-phenyl)-amide] | – | 98% | 7.39 | 27% | 16.8% | –
O=C(Nc1ccc(CN2CCOCC2)cc1)c1sc2ncnc3c2c1NC(=O)N3c1ccc(Oc2ccccc2)cc1 [Cpd 97, 4-oxo-5-(4-phenoxy-phenyl)-4,5-dihydro-3H-1-thia-3,5,6,8-tetraaza-acenaphthylene-2-carboxylic acid (4-morpholin-4-ylmethyl-phenyl)-amide] | – | 97% | 7.57 | 36.5% | 26.6% | –
CN1CCN(Cc2ccc(NC(=O)c3sc4ncnc5c4c3NC(=O)N5c3ccc(Oc4ccccc4)cc3)cc2)CC1 [Cpd 98, 4-oxo-5-(4-phenoxy-phenyl)-4,5-dihydro-3H-1-thia-3,5,6,8-tetraaza-acenaphthylene-2-carboxylic acid [4-(4-methyl-piperazin-1-ylmethyl)-phenyl]-amide] | – | 95% | 7.06 | 30.7% | 50.0% | –
O=C(Nc1ccc(CN2CCOCC2)cc1)c1sc2ncnc3c2c1NC(=O)N3c1ccc(Oc2ccccc2)c(F)c1 [Cpd 113, 5-(3-fluoro-4-phenoxy-phenyl)-4-oxo-4,5-dihydro-3H-1-thia-3,5,6,8-tetraaza-acenaphthylene-2-carboxylic acid (4-morpholin-4-ylmethyl-phenyl)-amide] | – | 83% | 7.05 | 60% | 55% | –
O=C(Nc1ccc(CN2CCOCC2)cc1)c1sc2ncnc3c2c1NC(=O)N3c1ccc(N2CCOCC2)cc1 [Cpd 123, 5-(4-morpholin-4-yl-phenyl)-4-oxo-4,5-dihydro-3H-1-thia-3,5,6,8-tetraaza-acenaphthylene-2-carboxylic acid (4-morpholin-4-ylmethyl-phenyl)-amide] | – | – | < 4.00 | 55% | – | 5.84
O=C(Nc1ccc(CN2CCCCC2)cc1)c1sc2ncnc3c2c1NC(=O)N3c1ccc(Sc2ccccc2)cc1 [Cpd 169, 4-oxo-5-(4-phenylsulfanyl-phenyl)-4,5-dihydro-3H-1-thia-3,5,6,8-tetraaza-acenaphthylene-2-carboxylic acid (4-piperidin-1-ylmethyl-phenyl)-amide] | – | – | 7.59 | – | – | –
O=C(Nc1ccc(CN2CCOCC2)cc1)c1sc2ncnc3c2c1NC(=O)N3c1ccc(Sc2ccccc2)cc1 [Cpd 178, 4-oxo-5-(4-phenylsulfanyl-phenyl)-4,5-dihydro-3H-1-thia-3,5,6,8-tetraaza-acenaphthylene-2-carboxylic acid (4-morpholin-4-ylmethyl-phenyl)-amide] | – | – | 7.25 | – | – | –

Results, then the molecule that gave them:

pIC50 (A375 malignant melanoma) | inhibition at 1 µM (HER-2) | pIC50 (HER-2) | inhibition at 2 µM (Lyn kinase (human)) | % Inhibition (Lyn) (Lyn kinase (human)) | pIC50 (Lyn kinase (human); value in parentheses) | SMILES
5.00 | 60% | 6.53 | – | – | – | O=C(Nc1ccc(CN2CCOCC2)cc1)c1sc2ncnc3c2c1NC(=O)N3c1cccc(Br)c1 [Cpd 36, 5-(3-bromo-phenyl)-4-oxo-4,5-dihydro-3H-1-thia-3,5,6,8-tetraaza-acenaphthylene-2-carboxylic acid (4-morpholin-4-ylmethyl-phenyl)-amide]
– | 21% | – | 71% | – | – | COc1cc(N2C(=O)Nc3c(C(=O)Nc4ccc(CN5CCCC5)cc4)sc4ncnc2c34)c(Cl)cc1Cl [Cpd 43, 5-(2,4-dichloro-5-methoxy-phenyl)-4-oxo-4,5-dihydro-3H-1-thia-3,5,6,8-tetraaza-acenaphthylene-2-carboxylic acid (4-pyrrolidin-1-ylmethyl-phenyl)-amide]
– | -5% | – | 50% | – | – | COc1ccc(Cl)c(N2C(=O)Nc3c(C(=O)Nc4ccc(OC)c(OC)c4)sc4ncnc2c34)c1 [Cpd 49, 5-(2-chloro-5-methoxy-phenyl)-4-oxo-4,5-dihydro-3H-1-thia-3,5,6,8-tetraaza-acenaphthylene-2-carboxylic acid (3,4-dimethoxy-phenyl)-amide]
– | -5% | – | 60% | – | – | COc1ccc(Cl)c(N2C(=O)Nc3c(C(=O)Nc4ccc(OCCN5CCOCC5)c(OC)c4)sc4ncnc2c34)c1 [Cpd 50, 5-(2-chloro-5-methoxy-phenyl)-4-oxo-4,5-dihydro-3H-1-thia-3,5,6,8-tetraaza-acenaphthylene-2-carboxylic acid [3-methoxy-4-(2-morpholin-4-yl-ethoxy)-phenyl]-amide]
– | 28% | – | 70% | – | – | COc1ccc(Cl)c(N2C(=O)Nc3c(C(=O)Nc4ccc(CN5CCOCC5)cc4)sc4ncnc2c34)c1 [Cpd 51, 5-(2-chloro-5-methoxy-phenyl)-4-oxo-4,5-dihydro-3H-1-thia-3,5,6,8-tetraaza-acenaphthylene-2-carboxylic acid (4-morpholin-4-ylmethyl-phenyl)-amide]
– | 3% | – | 52% | – | – | COC(=O)c1sc2ncnc3c2c1NC(=O)N3c1c(Cl)ccc2c1OCO2 [Cpd 54, 5-(5-chloro-benzo[1,3]dioxol-4-yl)-4-oxo-4,5-dihydro-3H-1-thia-3,5,6,8-tetraaza-acenaphthylene-2-carboxylic acid methyl ester]
– | 22% | – | 50% | – | – | COc1cc(N2C(=O)Nc3c(C(=O)Nc4ccc(CN5CCN(C)CC5)cc4)sc4ncnc2c34)c(Cl)cc1Cl [Cpd 60]
– | – | 6.28 | 92% | – | – | O=C(Nc1ccc(CN2CCOCC2)cc1)c1sc2ncnc3c2c1NC(=O)N3c1c(Cl)ccc2c1OCO2 [Cpd 62, 5-(5-chloro-benzo[1,3]dioxol-4-yl)-4-oxo-4,5-dihydro-3H-1-thia-3,5,6,8-tetraaza-acenaphthylene-2-carboxylic acid (4-morpholin-4-ylmethyl-phenyl)-amide]
– | 93% | 7.16 | – | 4% and 0.5% | – | O=C(Nc1ccc(CN2CCCCC2)cc1)c1sc2ncnc3c2c1NC(=O)N3c1ccc(OCc2ccccn2)c(Cl)c1 [Cpd 89, 5-[3-chloro-4-(pyridin-2-ylmethoxy)-phenyl]-4-oxo-4,5-dihydro-3H-1-thia-3,5,6,8-tetraaza-acenaphthylene-2-carboxylic acid (4-piperidin-1-ylmethyl-phenyl)-amide]
– | 82% | 6.30 | -8.1% | – | – | CN1CCN(Cc2ccc(NC(=O)c3sc4ncnc5c4c3NC(=O)N5c3ccc(OCc4ccccn4)c(Cl)c3)cc2)CC1 [Cpd 90, 5-[3-chloro-4-(pyridin-2-ylmethoxy)-phenyl]-4-oxo-4,5-dihydro-3H-1-thia-3,5,6,8-tetraaza-acenaphthylene-2-carboxylic acid [4-(4-methyl-piperazin-1-ylmethyl)-phenyl]-amide]
– | 95% | 6.95 | 40% | 50% | – | COc1cc(NC(=O)c2sc3ncnc4c3c2NC(=O)N4c2ccc(Oc3ccccc3)cc2)ccc1OCCN1CCCCC1 [Cpd 100, 4-oxo-5-(4-phenoxy-phenyl)-4,5-dihydro-3H-1-thia-3,5,6,8-tetraaza-acenaphthylene-2-carboxylic acid [3-methoxy-4-(2-piperidin-1-yl-ethoxy)-phenyl]-amide]
– | – | 5.15 | 70% | 69% | – | O=C(Nc1ccc(CN2CCOCC2)cc1)c1sc2ncnc3c2c1NC(=O)N3c1c(Cl)cccc1Cl [Cpd 104, 5-(2,6-dichloro-phenyl)-4-oxo-4,5-dihydro-3H-1-thia-3,5,6,8-tetraaza-acenaphthylene-2-carboxylic acid (4-morpholin-4-ylmethyl-phenyl)-amide]
